For data set [1], the target named is T1, human MOP (Homo sapiens, UniProt P35372). Description: [35S]-GTPγS binding assay, hMOP/CHO membranes. It counts as biochemical. (GTPγS is a poorly hydrolysed GTP analogue; its binding reports G protein activation.)
For data set [2], the system named is C57BL/6J mice. Description: Acquisition of morphine-induced conditioned place preference. It counts as in vivo, male C57BL/6J mice. The following applies: for time spent in the drug-paired compartment, preconditioning / time spent in the drug-paired compartment, postconditioning: n = 8; for morphine-induced CPP score compared with the vehicle-pretreated group: Dunnett's test. Here is the method: (§1) For the pharmacokinetic and pharmacological studies, morphine hydrochloride (Takeda Pharma, Osaka, Japan) was dissolved and diluted in saline and administered intraperitoneally (i.p.) in a volume of 10 mL/kg body weight. […] All experiments were conducted with a dose of morphine (10 mg/kg) that is sufficient to elicit CPP.
(§2) Male Crl:CD1 (ICR) mice (Japan CLEA, Tokyo, Japan) were used at 5 weeks of age for the pharmacokinetic analysis. Male C57BL/6J mice (Japan CLEA) were used at 7 weeks of age for the behavioral analyses. The mice were housed 4–6 per cage in an environment at 23 °C ± 1 °C and 50% ± 5% humidity with free access to food and water under a 12 h/12 h light/dark cycle. All experiments were performed with approval from the Institutional Animal Care and Use Committee at the Tokyo Metropolitan Institute of Medical Science.
(§3) The CPP test was performed using a two-compartment Plexiglas chamber. […] For the preconditioning and postconditioning phases, a T-style division with double 60 mm × 60 mm openings allowed the mice to access both compartments. During the conditioning phases, the openings were eliminated to restrict the mice to one of the compartments. The CPP apparatus was placed in a sound-attenuated, light-controlled box. On day 1 (preconditioning: habituation) and day 2 (preconditioning: pretest), the mice freely explored the two compartments for 900 s, and the time spent in each compartment during the exploratory period and locomotor activity were measured using an infrared detector (Neuroscience, Osaka, Japan). We selected a counterbalanced protocol to nullify each mouse’s initial preference as discussed previously. […] Conditioning was conducted once daily for 4 consecutive days (days 3–6). The mice were injected with morphine (10.0 mg/kg, i.p.) or saline and immediately confined to the black or white compartment for 60 min on day 3. On day 4, the mice were alternately injected with saline or drug and immediately confined to the opposite compartment for 60 min. On days 5 and 6, the same conditioning as on days 3 and 4 was repeated. The assignment of the mice to the conditioned compartment was performed randomly and counterbalanced across subjects. During the postconditioning phase on day 7, the time spent in each compartment was measured for 900 s. The CPP score was designated as the time spent in the drug-paired compartment on day 7 minus the time spent in the same compartment in the preconditioning phase on day 2.
(§4) The data were analyzed using two-way repeated-measures ANOVA followed by Sidak’s multiple-comparison post hoc test, one-way ANOVA followed by Dunnett’s multiple-comparison post hoc test, or Student’s t-test using GraphPad Prism software. Values of p < 0.05 were considered statistically significant.

Data set [3] relates to C57BL/6J mice. Description: Expression of morphine-induced conditioned place preference. It is filed as in vivo, male C57BL/6J mice. The following applies: for time spent in the morphine-paired compartment, preconditioning / time spent in the morphine-paired compartment, postconditioning: n = 8; for morphine-induced CPP score compared with the vehicle-treated control group: 10 mg/kg p.o. before the postconditioning phase, Dunnett's test, UD-030 p = 0.038, NTX p = 0.042; for sedative effects (number of transitions between compartments): 10 mg/kg p.o., postconditioning phase. How it is done:
as §1, §2, §3, §4

The target in data set [4] is T1, human MOP. Description: Competitive radioligand binding assay, hMOP/CHO membranes.
Data set [5] has as its target T2, human DOP (Homo sapiens, UniProt P41143). Description: Competitive radioligand binding assay, hDOP/CHO membranes.
Data set [6] addresses T3, human KOP (Homo sapiens, UniProt P41145). Description: Competitive radioligand binding assay, hKOP/CHO membranes.
Data set [7] has as its target T4, human NOP (Homo sapiens, UniProt P41146). Description: Competitive radioligand binding assay, hNOP/CHO membranes.
Data set [8] addresses T2, human DOP. Description: [35S]-GTPγS binding assay, hDOP/CHO membranes. It is filed as biochemical.
For data set [9], the target named is T3, human KOP. Description: [35S]-GTPγS binding assay, hKOP/CHO membranes. It counts as biochemical.
In data set [10] the target is T4, human NOP. Description: [35S]-GTPγS binding assay, hNOP/CHO membranes. It is filed as biochemical.
Data set [11] is described as follows: Pharmacokinetics after a single oral administration (plasma, LC-MS/MS). The following applies: male, Crl:CD1 (ICR), mouse; for concentration at 0.5 h / concentration at 1 h / concentration at 2 h / concentration at 4 h / concentration at 8 h / concentration at 24 h: in vivo; for AUC(0-t) / Cmax / Tmax: plasma; for Tmax: mice.
The mark [12] stands for this setting: 10 mg/kg p.o. 60 min before each morphine treatment (10 mg/kg, i.p.).
Setting [13] is: 10 mg/kg p.o. before each morphine treatment, UD-030 p < 0.001, NTX p = 0.003.
Where [14] appears, read: 10 mg/kg p.o. 60 min before the postconditioning phase.
The mark [15] stands for this setting: 3 mg/kg p.o. 60 min before each morphine treatment (10 mg/kg, i.p.).

Four compounds from PMC9961271, “Inhibitory Effects of a Novel μ-Opioid Receptor Nonpeptide Antagonist, UD-030, on Morphine-Induced Conditioned Place Preference” (International Journal of Molecular Sciences, 2023) can be followed below.

Where a name gives a salt, the structure may show the parent alone.

On to `C[C@@H](NC(=O)[C@@H](N)Cc1ccc(O)cc1)C(=O)NCC(=O)N(C)[C@@H](Cc1ccccc1)C(=O)NCCO` [DAMGO, reference compound], for which the Emax at human MOP [1] (hMOP/CHO, read-out: maximal effect (agonistic activity)) is more than 95%.

On to `CN1CC[C@]23c4c5ccc(O)c4O[C@H]2[C@@H](O)C=C[C@H]3[C@H]1C5` [Morphine, morphine hydrochloride], for which the “time spent in the drug-paired compartment, preconditioning” value in the data set with C57BL/6J mice [2] (morphine 10 mg/kg i.p. conditioning, vehicle-pretreated control mice) came out at 443.1 ± 33.2 s. Also, in the data set on C57BL/6J mice [2] (morphine 10 mg/kg i.p. conditioning, vehicle-pretreated control mice, p < 0.001 vs pre), the “time spent in the drug-paired compartment, postconditioning” value came out at 554.4 ± 31.8 s. For the same compound, the “time spent in the morphine-paired compartment, preconditioning” value in the data set on C57BL/6J mice [3] (morphine 10 mg/kg i.p. conditioning, vehicle-treated control mice) worked out at 443.6 ± 34.4 s. In addition, in the data set with C57BL/6J mice [3] (morphine 10 mg/kg i.p. conditioning, vehicle-treated control mice, p < 0.001 vs pre), the “time spent in the morphine-paired compartment, postconditioning” value was 554.4 ± 29.7 s.

As to `O=C1CC[C@@]2(O)[C@H]3Cc4ccc(O)c5c4[C@@]2(CCN3CC2CC2)[C@H]1O5` [NTX, naltrexone, reference compound], in the data set with C57BL/6J mice [2] (setting [12]), the “time spent in the drug-paired compartment, postconditioning” value is on record as 436.5 ± 49.7 s and the “time spent in the drug-paired compartment, preconditioning” value worked out at 437.0 ± 38.1 s. In addition, in the data set on C57BL/6J mice [2] (setting [13]), the “morphine-induced CPP score compared with the vehicle-pretreated group” value is on record as “significantly lower”. In the data set on C57BL/6J mice [3] (setting [14]), the “time spent in the morphine-paired compartment, postconditioning” value amounted to 474.1 ± 29.9 s and the “time spent in the morphine-paired compartment, preconditioning” value is reported as 441.6 ± 33.0 s. In addition, in the data set with C57BL/6J mice [3], the “morphine-induced CPP score compared with the vehicle-treated control group” value is given as “significantly decreased” and the “sedative effects (number of transitions between compartments)” value was “did not exert sedative effects”.

On to `CC[C@]1(c2cc(NS(=O)(=O)C3CC3)ccc2F)[C@@H]2CN(CC3(O)Cc4ccccc4C3)C[C@@H]21` [UD-030], for which the Ki (in general, a dissociation constant, usually derived from enzyme kinetics or from competition with a known ligand) stood at 3.1 nM at human MOP [4], 1800 nM at human DOP [5], 460 nM at human KOP [6] and 1800 nM on human NOP [7]. Moreover, the EC50 at human MOP [1], on human DOP [8], on human KOP [9] and at human NOP [10] was more than 10000 nM in each case. Further, the IC50 (in general, the concentration that inhibits the measured activity by half) on human MOP [1] was 1.7 nM; on human DOP [8] it was 850 nM; on human KOP [9], 85 nM; on human NOP [10], 330 nM. Also, the maximal inhibitory effect on human MOP [1] (against DAMGO), on human DOP [8] (against DPDPE), at human KOP [9] (against U-69593) and at human NOP [10] (against nociceptin) was more than 95% in each case. The “stimulation of [35S]-GTPγS binding” value at human MOP [1] (high concentration (10 µM)), at human DOP [8] (high concentration (10 µM)), at human KOP [9] (high concentration (10 µM)) and on human NOP [10] (high concentration (10 µM)) was “did not stimulate” throughout. The “time spent in the drug-paired compartment, postconditioning” value in the data set with C57BL/6J mice [2] (setting [15]) is on record as 470.6 ± 16.5 s; in the data set on C57BL/6J mice [2] (setting [12]) it was 392.8 ± 42.3 s. Further, the results for the “time spent in the drug-paired compartment, preconditioning” value in the data set on C57BL/6J mice [2] (setting [15]) and in the data set on C57BL/6J mice [2] (setting [12]) were 445.2 ± 18.9 s and 434.9 ± 30.5 s, respectively. In addition, the “morphine-induced CPP score compared with the vehicle-pretreated group” value with C57BL/6J mice [2] (3 mg/kg p.o. before each morphine treatment, p = 0.023) is “significantly lower”; in the data set on C57BL/6J mice [2] (setting [13]), “significantly lower”. For the same compound, the “time spent in the morphine-paired compartment, preconditioning” value in the data set on C57BL/6J mice [3] (3 mg/kg p.o. 60 min before the postconditioning phase) turned out to be 466.8 ± 20.7 s; in the data set on C57BL/6J mice [3] (setting [14]), 461.3 ± 20.0 s. Moreover, the “time spent in the morphine-paired compartment, postconditioning” value came to 536.5 ± 24.8 s in the data set with C57BL/6J mice [3] (3 mg/kg p.o. 60 min before the postconditioning phase, p = 0.012 vs pre) and 492.4 ± 32.8 s in the data set with C57BL/6J mice [3] (setting [14]). In addition, in the data set on C57BL/6J mice [3], the “morphine-induced CPP score compared with the vehicle-treated control group” value is on record as “significantly decreased”. For the same compound, in the data set on C57BL/6J mice [3], the “sedative effects (number of transitions between compartments)” value is reported as “did not exert sedative effects”. Further, in the data set on C57BL/6J mice [3] (high-dose (10 mg/kg, p.o.)), the “behavioral abnormalities during the session” value was “No other notable behavioral abnormalities”. Besides, the concentration at 0.5 h in data set [11] (0.5 mg/kg) is 1.09 ± 0.4 ng/mL; in [11] (1 mg/kg), 4.76 ± 1.9 ng/mL; in data set [11] (2 mg/kg) it was 11.8 ± 5.4 ng/mL; in data set [11] (4 mg/kg) it was 27.7 ± 24 ng/mL. Also, the concentration at 1 h stood at 2.86 ± 1.6 ng/mL in data set [11] (0.5 mg/kg), 6.98 ± 1.7 ng/mL in data set [11] (1 mg/kg), 25.5 ± 2.2 ng/mL in [11] (2 mg/kg) and 119 ± 35 ng/mL in [11] (4 mg/kg). The concentration at 2 h in data set [11] (0.5 mg/kg) was 2.96 ± 0.3 ng/mL; in data set [11] (1 mg/kg), 14.9 ± 0.9 ng/mL; in data set [11] (2 mg/kg) it was 36.1 ± 8.3 ng/mL; in [11] (4 mg/kg) it was 72.7 ± 18 ng/mL. In addition, the concentration at 4 h in [11] (0.5 mg/kg) was determined as 4.61 ± 1.9 ng/mL; in data set [11] (1 mg/kg), 11.5 ± 2.9 ng/mL; in data set [11] (2 mg/kg), 26.7 ± 3.3 ng/mL; in data set [11] (4 mg/kg), 103 ± 15 ng/mL. In addition, the concentration at 8 h is 4.95 ± 0.9 ng/mL in data set [11] (0.5 mg/kg), 10.9 ± 2.1 ng/mL in data set [11] (1 mg/kg), 18.8 ± 9.2 ng/mL in [11] (2 mg/kg) and 69.4 ± 10 ng/mL in data set [11] (4 mg/kg). Further, the concentration at 24 h was determined as 0.231 ng/mL in [11] (0.5 mg/kg), 0.358 ng/mL in data set [11] (1 mg/kg), 0.35 ng/mL in data set [11] (2 mg/kg) and 0.395 ± 0.1 ng/mL in data set [11] (4 mg/kg). For the same compound, the AUC(0-t) (as a rule, the area under the concentration-time curve up to a stated or last time point) in [11] (0.5 mg/kg) was determined as 72.3 ng·h/mL; in [11] (1 mg/kg) it was 176 ng·h/mL; in data set [11] (2 mg/kg), 350 ng·h/mL; in data set [11] (4 mg/kg), 1220 ng·h/mL. Further, the Cmax (in general, the highest concentration seen after dosing) was found to be 4.95 ng/mL in data set [11] (0.5 mg/kg), 14.9 ng/mL in data set [11] (1 mg/kg), 36.1 ng/mL in data set [11] (2 mg/kg) and 119 ng/mL in data set [11] (4 mg/kg). The Tmax (as a rule, the time at which the peak concentration occurs) in [11] (0.5 mg/kg, Tmax, 0.5 mg/kg p.o.) was 8 h; in data set [11] (1 mg/kg, Tmax, 1 mg/kg p.o.) it was 2 h; in data set [11] (2 mg/kg, Tmax, 2 mg/kg p.o.), 2 h; in [11] (4 mg/kg, Tmax, 4 mg/kg p.o.), 1 h; in data set [11] (4 mg/kg, time to reach the maximum plasma concentration (Tmax), over the doses 0.5, 1, 2 and 4 mg/kg p.o.), 1 to 8 h.
